Measurements published in patent US20080108611A1, “SUBSTITUTED THIENOPYRIMIDINE KINASE INHIBITORS” (priority 2006, published 2008).

Target: T1, EGFR (Homo sapiens, UniProt P00533)
T1 construct: The intracellular portion of EGFR started at nucleotide 2189 (corresponding to amino acid 667) and ended at the termination codon; made in house; host or cells: Sf9 insect cells (baculovirus)
Assay: EGFR Kinase Assay
Format: biochemical
Settings: GST-EGFR intracellular portion, 5 μM ATP
From the text: The EGFR kinase used was a fusion of Glutathione-S-Transferase (GST) and a PCR amplified intracellular portion of EGFR (NM_005228). The intracellular portion of EGFR started at nucleotide 2189 (corresponding to amino acid 667) and ended at the termination codon. The portion was PCR amplified with primers that added the lambda attB sequences to each end, recombined into an entry vector, then into a GST destination vector (as described in Gateway Technologies Manual by Invitrogen Corporation, Carlsbad, Calif.).
The destination vector was recombined in the DH10BAC strain of bacteria to produce a bacmid. The bacmid was transfected into Sf 9 cells and the supernatant containing the baculovirus was collected. The GSTEGFR protein was purified using large cultures of Sf 9 cells infected with stock virus. After an appropriate period of time, the cells were collected and lysed. The GSTEGFR was then purified from the lysate on Glutathione-Sepharose columns (as described by Amersham Biosciences, Buckinghamshire, United Kingdom).
The EGFR substrate was prepared by biotinylating polyGluTyr (128 mg) (Sigma, St. Louis, Mo.) in a 1×PBS buffer incubated together with a 12-fold molar excess of Sulfo-NHS-LC-Biotin on ice for at least 2 hrs. The free biotin was separated from the biotinylated polyGluTyr on a gel filtration column.
A mixture of a 10× kinase buffer (500 mM Tris at pH 8.0, 100 mM Magnesium Chloride and 1 mM Sodium Vanadate), DTT (1 mM final from 500 mM stock), ATP (5 μM final from 10 mM stock), biotinylated polyGluTyr (10 μg/μL stock), γ-^33P ATP (10 μCi/μL stock) and water was added to each well (90 μL/well) of a Streptavidin Flashplate (Perkin Elmer, Wellesley, M A).
Test compound in 100% DMSO (2 μL) was added to the appropriate wells. Diluted GSTEGFR (1:300 dilution in 50 mM Tris at pH 8.0 and 0.1% bovine serum albumin) (10 μL) was added to the wells to initiate the reactions.
The plates were incubated at 30° C. for 1 hr with shaking. The reacted contents were removed and the plates were sequentially washed three times with a 1×PBS stop buffer (300 μL without Magnesium and Calcium) and 100 mM EDTA. After the final wash, the same stop buffer (200 μL) was added to the wells. The plates were then sealed and read on the TopCount scintillation counter.
Test compounds were assayed in triplicate at 16 concentrations at half-log dilutions starting at 200 uM. A maximum and minimum signal for the assay was determined on each plate. The percent inhibition of a test compound was calculated according to the formula
For a series of test concentrations, the IC50 was derived by graphing percent inhibition against the log of the concentrations tested for a given compound. For those compounds without an IC50, the percent inhibition results are shown at a test concentration of 2 μM.

T1 sequence (P00533 669-1210 limits assumed): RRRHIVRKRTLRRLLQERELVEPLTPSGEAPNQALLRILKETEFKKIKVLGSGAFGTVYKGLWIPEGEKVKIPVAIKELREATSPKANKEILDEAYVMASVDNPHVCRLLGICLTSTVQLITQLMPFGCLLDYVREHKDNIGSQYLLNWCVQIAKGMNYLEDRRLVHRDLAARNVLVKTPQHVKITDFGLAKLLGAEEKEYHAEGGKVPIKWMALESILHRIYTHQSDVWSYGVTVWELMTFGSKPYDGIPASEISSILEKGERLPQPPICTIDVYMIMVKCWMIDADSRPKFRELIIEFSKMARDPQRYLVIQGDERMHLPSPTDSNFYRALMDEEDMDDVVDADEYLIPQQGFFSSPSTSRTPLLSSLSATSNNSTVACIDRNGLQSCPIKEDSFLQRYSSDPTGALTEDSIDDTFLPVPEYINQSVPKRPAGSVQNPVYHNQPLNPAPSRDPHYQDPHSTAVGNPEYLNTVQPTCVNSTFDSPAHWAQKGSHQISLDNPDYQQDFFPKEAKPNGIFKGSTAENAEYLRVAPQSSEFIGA

SMILES	IC50
COc1ccc(NC(=O)c2sc3ncnc(Nc4ccc(F)c(Cl)c4)c3c2N)cc1 [Cpd 1, 5-amino-4-(3-chloro-4-fluoro-phenylamino)-thieno[2,3-d]pyrimidine-6-carboxylic acid (4-methoxy-phenyl)-amide]	0.239 nM
CN(Cc1ccc(NC(=O)c2sc3ncnc(Nc4ccc(F)c(Cl)c4)c3c2N)cc1)C[C@@H]1CCCO1 [Cpd 17, 5-amino-4-(3-chloro-4-fluoro-phenylamino)-thieno[2,3-d]pyrimidine-6-carboxylic acid [4-({methyl-[(2S)-tetrahydro-furan-2-ylmethyl]-amino}-methyl)-phenyl]-amide]	0.062 nM
Nc1c(C(=O)Nc2ccc(Oc3ccccc3)cc2)sc2ncnc(Nc3ccc(F)c(Cl)c3)c12 [Cpd 6, 5-amino-4-(3-chloro-4-fluoro-phenylamino)-thieno[2,3-d]pyrimidine-6-carboxylic acid (4-phenoxy-phenyl)-amide]	0.741 nM
Nc1c(C(=O)Nc2ccc(CN3CCOCC3)cc2)sc2ncnc(Nc3ccc(F)c(Cl)c3)c12 [Cpd 2, 5-amino-4-(3-chloro-4-fluoro-phenylamino)-thieno[2,3-d]pyrimidine-6-carboxylic acid (4-morpholin-4-ylmethyl-phenyl)-amide]	0.086 nM
COc1ccc(CCNC(=O)c2sc3ncnc(Nc4ccc(F)c(Cl)c4)c3c2N)cc1OC [Cpd 12, 5-amino-4-(3-chloro-4-fluoro-phenylamino)-thieno[2,3-d]pyrimidine-6-carboxylic acid [2-(3,4-dimethoxy-phenyl)-ethyl]-amide]	0.22 nM
COc1ccc(NC(=O)c2sc3ncnc(Nc4ccc(F)c(Cl)c4)c3c2N)cn1 [Cpd 9, 5-amino-4-(3-chloro-4-fluoro-phenylamino)-thieno[2,3-d]pyrimidine-6-carboxylic acid (6-methoxy-pyridin-3-yl)-amide]	0.147 nM
COc1ccc(CNC(=O)c2sc3ncnc(Nc4ccc(F)c(Cl)c4)c3c2N)cc1OC [Cpd 11, 5-amino-4-(3-chloro-4-fluoro-phenylamino)-thieno[2,3-d]pyrimidine-6-carboxylic acid 3,4-dimethoxy-benzylamide]	0.177 nM
Nc1c(C(=O)Nc2ccc(OC(F)(F)F)cc2)sc2ncnc(Nc3ccc(F)c(Cl)c3)c12 [Cpd 7, 5-amino-4-(3-chloro-4-fluoro-phenylamino)-thieno[2,3-d]pyrimidine-6-carboxylic acid (4-trifluoromethoxy-phenyl)-amide]	0.598 nM
Nc1c(C(=O)Nc2ccc(CN3CCCCC3)cc2)sc2ncnc(Nc3ccc(F)c(Cl)c3)c12 [Cpd 13, 5-amino-4-(3-chloro-4-fluoro-phenylamino)-thieno[2,3-d]pyrimidine-6-carboxylic acid (4-piperidin-1-ylmethyl-phenyl)-amide]	0.053 nM
CN(C)Cc1ccc(NC(=O)c2sc3ncnc(Nc4ccc(F)c(Cl)c4)c3c2N)cc1 [Cpd 14, 5-amino-4-(3-chloro-4-fluoro-phenylamino)-thieno[2,3-d]pyrimidine-6-carboxylic acid (4-dimethylaminomethyl-phenyl)-amide]	0.034 nM
COc1ccc(NC(=O)c2sc3ncnc(Nc4ccc(F)c(Cl)c4)c3c2N)cc1OC [Cpd 3, 5-amino-4-(3-chloro-4-fluoro-phenylamino)-thieno[2,3-d]pyrimidine-6-carboxylic acid (3,4-dimethoxy-phenyl)-amide]	0.109 nM
Nc1c(C(=O)NCCN2CCOCC2)sc2ncnc(Nc3ccc(F)c(Cl)c3)c12 [Cpd 4, 5-amino-4-(3-chloro-4-fluoro-phenylamino)-thieno[2,3-d]pyrimidine-6-carboxylic acid (2-morpholin-4-yl-ethyl)-amide]	0.606 nM
Nc1c(C(=O)Nc2ccc(N3CCOCC3)cc2)sc2ncnc(Nc3ccc(F)c(Cl)c3)c12 [Cpd 10, 5-amino-4-(3-chloro-4-fluoro-phenylamino)-thieno[2,3-d]pyrimidine-6-carboxylic acid (4-morpholin-4-yl-phenyl)-amide]	0.196 nM
CN(C)CCCNS(=O)(=O)c1ccc(NC(=O)c2sc3ncnc(Nc4ccc(F)c(Cl)c4)c3c2N)cc1 [Cpd 5, 5-amino-4-(3-chloro-4-fluoro-phenylamino)-thieno[2,3-d]pyrimidine-6-carboxylic acid [4-(3-dimethylamino-propylsulfamoyl)-phenyl]-amide]	0.043 nM
CN(Cc1ccc(NC(=O)c2sc3ncnc(Nc4ccc(F)c(Cl)c4)c3c2N)cc1)C[C@H]1CCCO1 [Cpd 16, 5-amino-4-(3-chloro-4-fluoro-phenylamino)-thieno[2,3-d]pyrimidine-6-carboxylic acid [4-({methyl-[(2R)-tetrahydro-furan-2-ylmethyl]-amino}-methyl)-phenyl]-amide]	0.035 nM
CC(C)Oc1ccc(NC(=O)c2sc3ncnc(Nc4ccc(F)c(Cl)c4)c3c2N)cc1 [Cpd 8, 5-amino-4-(3-chloro-4-fluoro-phenylamino)-thieno[2,3-d]pyrimidine-6-carboxylic acid (4-isopropoxy-phenyl)-amide]	0.14 nM
CN1CCN(Cc2ccc(NC(=O)c3sc4ncnc(Nc5ccc(F)c(Cl)c5)c4c3N)cc2)CC1 [Cpd 18, 5-amino-4-(3-chloro-4-fluoro-phenylamino)-thieno[2,3-d]pyrimidine-6-carboxylic acid [4-(4-methyl-piperazin-1-ylmethyl)-phenyl]-amide]	0.067 nM
CN(CCc1ccc(NC(=O)c2sc3ncnc(Nc4ccc(F)c(Cl)c4)c3c2N)cc1)C1CCOCC1 [Cpd 15, 5-amino-4-(3-chloro-4-fluoro-phenylamino)-thieno[2,3-d]pyrimidine-6-carboxylic acid (4-{2-[methyl-(tetrahydro-pyran-4-yl)-amino]-ethyl}-phenyl)-amide]	0.064 nM
